{
  "source": "PubChem BioAssay (NCI)",
  "test_in_all_cases": "NCI tumour cell line growth inhibition, 48 h",
  "key": {"[1]": {"system": "NCI-H226 lung"}, "[2]": {"system": "NCI-H23 lung"}, "[3]": {"system": "NCI-H460 lung"}, "[4]": {"system": "NCI-H522 lung"}, "[5]": {"system": "NCI/ADR-RES ovarian"}, "[6]": {"system": "OVCAR-3 ovarian"}, "[7]": {"system": "OVCAR-4 ovarian"}, "[8]": {"system": "OVCAR-5 ovarian"}, "[9]": {"system": "OVCAR-8 ovarian"}, "[10]": {"system": "PC-3 prostate"}, "[11]": {"system": "RPMI-8226 leukemia"}, "[12]": {"system": "RXF 393 renal"}, "[13]": {"system": "SF-268 CNS"}, "[14]": {"system": "SF-295 CNS"}, "[15]": {"system": "SF-539 CNS"}, "[16]": {"system": "SK-MEL-2 melanoma"}, "[17]": {"system": "SK-MEL-28 melanoma"}, "[18]": {"system": "SK-MEL-5 melanoma"}, "[19]": {"system": "SK-OV-3 ovarian"}, "[20]": {"system": "SN12C renal"}, "[21]": {"system": "SNB-19 CNS"}, "[22]": {"system": "SNB-75 CNS"}, "[23]": {"system": "SR leukemia"}, "[24]": {"system": "SW-620 colon"}, "[25]": {"system": "T-47D breast"}, "[26]": {"system": "TK-10 renal"}, "[27]": {"system": "U251 CNS"}, "[28]": {"system": "UACC-257 melanoma"}, "[29]": {"system": "UACC-62 melanoma"}, "[30]": {"system": "UO-31 renal"}},
  "note": "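In this assay, cells in 96-well plates receive the compound at five concentrations for 48 hours. Endpoints are linearly interpolated between the surrounding concentrations. GI50 is the concentration that inhibits growth by half. At the TGI there is no net growth.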",
  "data": [
    {"compound": "Cc1ccc(-c2nc(C#N)c(S(=O)(=O)N3CCN(S(=O)(=O)c4ccccc4)CC3)o2)cc1", "values": [
      {"measurement": "TGI", "setting": "[1]", "result": "> 100", "unit": "µM"},
      {"measurement": "GI50", "setting": "[2]", "result": "> 100", "unit": "µM"},
      {"measurement": "TGI", "setting": "[2]", "result": "> 100", "unit": "µM"},
      {"measurement": "GI50", "setting": "[3]", "result": "> 100", "unit": "µM"},
      {"measurement": "TGI", "setting": "[3]", "result": "> 100", "unit": "µM"},
      {"measurement": "GI50", "setting": "[4]", "result": "> 100", "unit": "µM"},
      {"measurement": "TGI", "setting": "[4]", "result": "> 100", "unit": "µM"},
      {"measurement": "GI50", "setting": "[5]", "result": "> 100", "unit": "µM"},
      {"measurement": "TGI", "setting": "[5]", "result": "> 100", "unit": "µM"},
      {"measurement": "GI50", "setting": "[6]", "result": "> 100", "unit": "µM"},
      {"measurement": "TGI", "setting": "[6]", "result": "> 100", "unit": "µM"},
      {"measurement": "GI50", "setting": "[7]", "result": "> 100", "unit": "µM"},
      {"measurement": "TGI", "setting": "[7]", "result": "> 100", "unit": "µM"},
      {"measurement": "GI50", "setting": "[8]", "result": "> 100", "unit": "µM"},
      {"measurement": "TGI", "setting": "[8]", "result": "> 100", "unit": "µM"},
      {"measurement": "GI50", "setting": "[9]", "result": "> 100", "unit": "µM"},
      {"measurement": "TGI", "setting": "[9]", "result": "> 100", "unit": "µM"},
      {"measurement": "GI50", "setting": "[10]", "result": "> 100", "unit": "µM"},
      {"measurement": "TGI", "setting": "[10]", "result": "> 100", "unit": "µM"},
      {"measurement": "GI50", "setting": "[11]", "result": "> 100", "unit": "µM"},
      {"measurement": "TGI", "setting": "[11]", "result": "> 100", "unit": "µM"},
      {"measurement": "GI50", "setting": "[12]", "result": "> 100", "unit": "µM"},
      {"measurement": "TGI", "setting": "[12]", "result": "> 100", "unit": "µM"},
      {"measurement": "GI50", "setting": "[13]", "result": "> 100", "unit": "µM"},
      {"measurement": "TGI", "setting": "[13]", "result": "> 100", "unit": "µM"},
      {"measurement": "GI50", "setting": "[14]", "result": "> 100", "unit": "µM"},
      {"measurement": "TGI", "setting": "[14]", "result": "> 100", "unit": "µM"},
      {"measurement": "GI50", "setting": "[15]", "result": "> 100", "unit": "µM"},
      {"measurement": "TGI", "setting": "[15]", "result": "> 100", "unit": "µM"},
      {"measurement": "GI50", "setting": "[16]", "result": "> 100", "unit": "µM"},
      {"measurement": "TGI", "setting": "[16]", "result": "> 100", "unit": "µM"},
      {"measurement": "GI50", "setting": "[17]", "result": "> 100", "unit": "µM"},
      {"measurement": "TGI", "setting": "[17]", "result": "> 100", "unit": "µM"},
      {"measurement": "GI50", "setting": "[18]", "result": "> 100", "unit": "µM"},
      {"measurement": "TGI", "setting": "[18]", "result": "> 100", "unit": "µM"},
      {"measurement": "GI50", "setting": "[19]", "result": "> 100", "unit": "µM"},
      {"measurement": "TGI", "setting": "[19]", "result": "> 100", "unit": "µM"},
      {"measurement": "GI50", "setting": "[20]", "result": "> 100", "unit": "µM"},
      {"measurement": "TGI", "setting": "[20]", "result": "> 100", "unit": "µM"},
      {"measurement": "GI50", "setting": "[21]", "result": "> 100", "unit": "µM"},
      {"measurement": "TGI", "setting": "[21]", "result": "> 100", "unit": "µM"},
      {"measurement": "GI50", "setting": "[22]", "result": "> 100", "unit": "µM"},
      {"measurement": "TGI", "setting": "[22]", "result": "> 100", "unit": "µM"},
      {"measurement": "GI50", "setting": "[23]", "result": "> 100", "unit": "µM"},
      {"measurement": "TGI", "setting": "[23]", "result": "> 100", "unit": "µM"},
      {"measurement": "GI50", "setting": "[24]", "result": "> 100", "unit": "µM"},
      {"measurement": "TGI", "setting": "[24]", "result": "> 100", "unit": "µM"},
      {"measurement": "GI50", "setting": "[25]", "result": "> 100", "unit": "µM"},
      {"measurement": "TGI", "setting": "[25]", "result": "> 100", "unit": "µM"},
      {"measurement": "GI50", "setting": "[26]", "result": "> 100", "unit": "µM"},
      {"measurement": "TGI", "setting": "[26]", "result": "> 100", "unit": "µM"},
      {"measurement": "GI50", "setting": "[27]", "result": "> 100", "unit": "µM"},
      {"measurement": "TGI", "setting": "[27]", "result": "> 100", "unit": "µM"},
      {"measurement": "GI50", "setting": "[28]", "result": "> 100", "unit": "µM"},
      {"measurement": "TGI", "setting": "[28]", "result": "> 100", "unit": "µM"},
      {"measurement": "GI50", "setting": "[29]", "result": "> 100", "unit": "µM"},
      {"measurement": "TGI", "setting": "[29]", "result": "> 100", "unit": "µM"},
      {"measurement": "GI50", "setting": "[30]", "result": "> 100", "unit": "µM"},
      {"measurement": "TGI", "setting": "[30]", "result": "> 100", "unit": "µM"}
    ]}
  ]
}
